Source: patent US6569638B1, “Method for screening compounds for the treatment of neoplasia” (Cell Pathways, Inc, priority 2000, dated 2003)
Where two headings read alike, the source gives them in different places.

What was measured:
[1] = assay type: in vivo; settings: for body weight gain: rat, in vivo
Description: Thus, on a single-dose basis, Compound B is not acutely toxic.

[2] = 28-day study in rats; assay type: in vivo
[3] = biological target: T1, COX I (Ovis aries, UniProt P05979); assay: COX I inhibition; assay type: biochemical, ram; settings: at 100 μM
T1 construct: COX-I purified from ram seminal vesicles; tissue Cayman Chemical; host or cells: ram seminal vesicles
T1 sequence (P05979 25-600): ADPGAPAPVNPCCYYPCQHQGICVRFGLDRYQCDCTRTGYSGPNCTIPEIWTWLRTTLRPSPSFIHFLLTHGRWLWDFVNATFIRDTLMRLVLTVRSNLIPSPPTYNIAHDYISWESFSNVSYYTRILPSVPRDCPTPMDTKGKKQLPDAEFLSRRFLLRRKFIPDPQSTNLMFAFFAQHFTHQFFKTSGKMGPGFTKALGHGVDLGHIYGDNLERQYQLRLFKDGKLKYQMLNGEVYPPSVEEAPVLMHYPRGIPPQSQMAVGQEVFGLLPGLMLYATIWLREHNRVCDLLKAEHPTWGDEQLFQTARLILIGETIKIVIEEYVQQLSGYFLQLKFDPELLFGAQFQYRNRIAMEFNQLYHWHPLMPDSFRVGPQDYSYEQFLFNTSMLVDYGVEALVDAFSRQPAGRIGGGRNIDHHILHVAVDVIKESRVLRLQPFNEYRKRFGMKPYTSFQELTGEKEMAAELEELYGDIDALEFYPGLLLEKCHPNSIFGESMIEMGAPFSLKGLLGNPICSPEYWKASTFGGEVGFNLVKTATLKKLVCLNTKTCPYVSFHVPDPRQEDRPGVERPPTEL

[4] = test system: panel of cultured human cell lines; assay: Neutral red growth inhibition, panel of cultured human cell lines; assay type: cell-based; settings: five days continuous treatment, read-out: GI50 calculated for all cell lines
Experimental: (§1) Compound B's activity is not confined to activity against colon cancer cell lines or animal models of colon cancer. It has a broad range of anti-neoplastic effects in various neoplastic cell lines. Various types of human cancer cell lines were propagated under sterile conditions in RPMI 1640 medium with 10% fetal bovine serum, 2 mM L-glutamine and sodium bicarbonate. To determine growth inhibitory effects of Compound B, cells were seeded in 96-well plates at a density of 1000 cells per well. Twenty-four hours after plating, the cells were dosed with various concentrations of the free base of Compound B solubilized in DMSO (final concentration 0.1%). The effect of the drug on tumor cell growth was determined using the neutral red cytotoxicity assay following five days of continuous treatment. Neutral red is a dye that is selectively taken up by viable cells by an ATP-dependent transport mechanism.

[5] = test system: CCRF-CEM; assay: Neutral red growth inhibition; assay type: cell-based, human; settings: Leukemia, HCl salt
Experimental: as §1

[6] = test system: Colo 205; assay: Neutral red growth inhibition; assay type: cell-based, human; settings: Colo 205, Colon, free base
Experimental: as §1

[7] = test system: DU145; assay: Neutral red growth inhibition; assay type: cell-based, human; settings: DU145, Prostate, free base
Experimental: as §1

[8] = test system: HCT-15; assay: Neutral red growth inhibition; assay type: cell-based, human; settings: HCT-15, Colon, free base
Experimental: as §1

[9] = test system: HT-29; assay: Neutral red growth inhibition; assay type: cell-based, human; settings: HT-29, Colon, free base
Experimental: as §1

[10] = test system: MDA-MB-231; assay: Neutral red growth inhibition; assay type: cell-based, human; settings: MDA-MB-231, Breast, free base
Experimental: as §1

[11] = test system: MDA-MB-435; assay: Neutral red growth inhibition; assay type: cell-based, human; settings: MDA-MB-435, Breast, free base
Experimental: as §1

[12] = test system: NCI-H23; assay: Neutral red growth inhibition; assay type: cell-based, human; settings: NCI-H23, Lung, free base
Experimental: as §1

[13] = test system: NCI-H322M; assay: Neutral red growth inhibition; assay type: cell-based, human; settings: Lung, free base
Experimental: as §1

[14] = test system: NCI-H460; assay: Neutral red growth inhibition; assay type: cell-based, human; settings: NCI-H460, Lung, free base
Experimental: as §1

[15] = test system: NCI-H82; assay: Neutral red growth inhibition; assay type: cell-based, human; settings: NCI-H82, Lung, free base
Experimental: as §1

[16] = test system: OVCAR; assay: Neutral red growth inhibition; assay type: cell-based, human; settings: Ovary, HCl salt
Experimental: as §1

[17] = test system: PC-3; assay: Neutral red growth inhibition; assay type: cell-based, human; settings: PC-3, Prostate, free base
Experimental: as §1

[18] = test system: SW-620; assay: Neutral red growth inhibition; assay type: cell-based, human; settings: SW-620, Colon, free base
Experimental: as §1

[19] = test system: UISO-BCA-1; assay: Neutral red growth inhibition; assay type: cell-based, human; settings: UISO-BCA-1, Breast, free base
Experimental: as §1

[20] = test system: Molt-4; assay: Neutral red growth inhibition; assay type: cell-based, human; settings: Molt-4, Leukemia, HCl salt
Experimental: as §1, with “Twenty-four hours after plating, the cells were dosed with various concentrations of the free base of Compound B solubilized in DMSO (final concentration 0.1%).” left out

[21] = test system: PKG in SW480 cells; assay: Western blot of PKG expression; assay type: cell-based, human; settings: 48 hours
Experimental: SW480 cells treated with exisulind as described previously are harvested from the microfuge tubes by rinsing once with ice-cold PBS. The cells are lysed by modified RIPA buffer for 15 minutes with agitation. The cell lysate is spun down in a cold room. The supernatants are transferred to fresh microcentrifuge tubes immediately after spinning. BioRad DC Protein Assay (Temecula, Calif.) is performed to determine the protein concentrations in samples. The samples are normalized for protein concentration, as described above.
50 μg of each sample is loaded to 10% SDS gel. SDS-PAGE is performed, and the proteins then are transferred to a nitrocellulose membrane. The blotted nitrocellulose membrane are blocked in freshly prepared TBST containing 5% nonfat dry milk for one hour at room temperature with constant agitation.
A goat-anti-PKG primary antibody is diluted to the recommended concentration/dilution in fresh TBST/5% nonfat dry milk. The nitrocellulose membrane is placed in the primary antibody solution and incubated one hour at room temperature with agitation. The nitrocellulose membrane is washed three times for ten minutes each with TBST. The nitrocellulose membrane is incubated in a solution containing a secondary POD conjugated rabbit anti-goat antibody for 1 hour at room temperature with agitation. The nitrocellulose membrane is washed three times for ten minutes each time with TBST. […]

With `CC1=C(CC(=O)NCc2ccccc2)c2cc(F)ccc2/C1=C\c1ccncc1.Cl` [Compound B, (Z)-5-fluoro-2-methyl-(4-pyridylidene)-3-(N-benzyl)indenylacetamide hydrochloride] the body weight gain ([1]; ip, 1000 mg/kg) was “reduced body weight gain”, the body weight gain ([1]; po, 4000 mg/kg) was “body weight gains were slightly reduced” and the “intraperitoneal LD50” value ([1]; rats) was “greater than 1000 mg/kg”. The “oral LD50” value ([1]; rats) was over 4000 mg/kg, the signs of toxicity ([1]; rats, single oral doses up to and including 2000 mg/kg, 0.5% carboxy-methylcellulose vehicle) was “no observable signs of toxicity” and the liver weights ([2]; 28 days, 2000 mg/kg/day) was “statistically significant increase in liver weights”. For the same molecule, the thyroid weights ([2]; 28 days, 2000 mg/kg/day) was “statistically significant increases in thyroid weights”, the clinical observations ([2]; 28 days, 50, 500 and 2000 mg/kg/day) was “no abnormal clinical observations attributed to Compound B” and the “COX I inhibition” value [3] was “less than 25%”. The GI50 [4] was 1000 to 2000 nM, the GI50 [5] was 1400 nM and the GI50 [6] was 1600 nM. The GI90 [6] was 2400 nM, the GI50 [7] was 1600 nM and the GI90 [7] was 2800 nM. It also gave a GI50 [8] of 1700 nM, a GI90 [8] of 3000 nM and a GI50 [9] of 2100 nM. For the same molecule, the GI90 [9] was 8000 nM, the GI50 [10] was 1800 nM and the GI90 [10] was 77600 nM. The GI50 [11] was 1600 nM, the GI90 [11] was 2300 nM and the GI50 [12] was 1700 nM. For the same molecule, the GI90 [12] was 2500 nM, the GI50 [13] was 2100 nM and the GI90 [13] was 13200 nM. The GI50 [14] was 1900 nM, the GI90 [14] was 30000 nM and the GI50 [15] was 1700 nM. The GI90 [15] was 5800 nM, the GI50 [16] was 1200 nM and the GI50 [17] was 1700 nM. It also gave a GI90 [17] of 82500 nM, a GI50 [18] of 1700 nM and a GI90 [18] of 2500 nM. The GI50 [19] was 1500 nM, the GI90 [19] was 4700 nM and the GI50 [20] was 1600 nM.
In the case of `CC1=C(CC(=O)O)c2cc(F)ccc2/C1=C\c1ccc(S(C)(=O)=O)cc1` [exisulind, 5-fluoro-2-methyl-1-(p-methylsulfonylbenzylidene)-3-indenylacetic acid], the “PKG level by Western blot” value [21] is reported as “the increase of PKG”.
